Laboratory results published in ChEMBL document CHEMBL1122862, “Synthesis and antibacterial activity of 2,2'-dithiobis(benzamide) derivatives against Mycobacterium species” (1985).
In brackets after ≈: the same amount, converted by molar mass.

Legend:
Format in all cases: functional
[1] = system: Mycobacterium tuberculosis; test: Antibacterial activity against Mycobacterium tuberculosis H37Rv.
Mycobacterium kansasii = test: Antibacterial activity against Mycobacterium kansasii
[2] = system: Mycobacterium intracellulare; test: Antibacterial activity against Mycobacterium intracellular.

SMILES	MIC [1]	MIC (Mycobacterium kansasii)	MIC [2]
O=C(NCCCCO)c1ccccc1SSc1ccccc1C(=O)NCCCCO	6.25 µg/mL (≈ 13.9 µM)	25 µg/mL (≈ 55.7 µM)	25 µg/mL (≈ 55.7 µM)
CC[C@@H](CO)NCCN[C@@H](CC)CO [ETHAMBUTOL]	0.78 µg/mL (≈ 3.82 µM)	12.5 µg/mL (≈ 61.2 µM)	12.5 µg/mL (≈ 61.2 µM)
NC(=O)c1ccccc1SSc1ccccc1C(N)=O	12.5 µg/mL (≈ 41.1 µM)	25 µg/mL (≈ 82.1 µM)	25 µg/mL (≈ 82.1 µM)
NNC(=O)c1ccncc1 [ISONIAZID]	0.05 µg/mL (≈ 0.365 µM)	1.56 µg/mL (≈ 11.4 µM)	6.25 µg/mL (≈ 45.6 µM)
CCCCCCCCCCCCCCCC(=O)OCCCNC(=O)c1ccccc1SSc1ccccc1C(=O)NCCCOC(=O)CCCCCCCCCCCCCCC	50 µg/mL (≈ 55.7 µM)	100 µg/mL (≈ 111 µM)	> 100 µg/mL
O=C(Nc1ccc2ccccc2c1)c1ccccc1SSc1ccccc1C(=O)Nc1ccc2ccccc2c1	1.56 µg/mL (≈ 2.8 µM)	6.25 µg/mL (≈ 11.2 µM)	6.25 µg/mL (≈ 11.2 µM)
O=C(NCCO)c1ccccc1SSc1ccccc1C(=O)NCCO	6.25 µg/mL (≈ 15.9 µM)	25 µg/mL (≈ 63.7 µM)	25 µg/mL (≈ 63.7 µM)
O=C(c1ccccc1SSc1ccccc1C(=O)N1CCN(c2ccccc2)CC1)N1CCN(c2ccccc2)CC1	12.5 µg/mL (≈ 21 µM)	50 µg/mL (≈ 84.1 µM)	25 µg/mL (≈ 42 µM)
CC(O)Cn1sc2ccccc2c1=O (stereo not drawn)	12.5 µg/mL (≈ 59.7 µM)	25 µg/mL (≈ 119 µM)	12.5 µg/mL (≈ 59.7 µM)
O=C(Nc1cccc(C(F)(F)F)c1)c1ccccc1SSc1ccccc1C(=O)Nc1cccc(C(F)(F)F)c1	12.5 µg/mL (≈ 21.1 µM)	25 µg/mL (≈ 42.2 µM)	25 µg/mL (≈ 42.2 µM)
O=C(NCc1cccc2ccccc12)c1ccccc1SSc1ccccc1C(=O)NCc1cccc2ccccc12	> 100 µg/mL	> 100 µg/mL	> 100 µg/mL
CCCCCCC(=O)OCCCNC(=O)c1ccccc1SSc1ccccc1C(=O)NCCCOC(=O)CCCCCC	0.78 µg/mL (≈ 1.21 µM)	0.39 µg/mL (≈ 0.605 µM)	12.5 µg/mL (≈ 19.4 µM)
CC(CCc1ccccc1)NC(=O)c1ccccc1SSc1ccccc1C(=O)NC(C)CCc1ccccc1 (stereo not drawn)	100 µg/mL (≈ 176 µM)	> 100 µg/mL	> 100 µg/mL
O=C(NC1CCC(O)CC1)c1ccccc1SSc1ccccc1C(=O)NC1CCC(O)CC1 (stereo not drawn)	12.5 µg/mL (≈ 25 µM)	25 µg/mL (≈ 49.9 µM)	25 µg/mL (≈ 49.9 µM)
CCCCCCCC(=O)OCCCNC(=O)c1ccccc1SSc1ccccc1C(=O)NCCCOC(=O)CCCCCCC	0.39 µg/mL (≈ 0.58 µM)	0.78 µg/mL (≈ 1.16 µM)	12.5 µg/mL (≈ 18.6 µM)
CCCCc1ccc(NC(=O)c2ccccc2SSc2ccccc2C(=O)Nc2ccc(CCCC)cc2)cc1	0.78 µg/mL (≈ 1.37 µM)	12.5 µg/mL (≈ 22 µM)	12.5 µg/mL (≈ 22 µM)

SMILES	MIC [1]	MIC (Mycobacterium kansasii)	MIC [2]
O=C(NCCO)c1ccc(Cl)cc1SSc1ccc(Cl)cc1C(=O)NCCO	6.25 µg/mL (≈ 13.5 µM)	25 µg/mL (≈ 54.2 µM)	50 µg/mL (≈ 108 µM)
O=C(Nc1cccc(Cl)c1)c1ccccc1SSc1ccccc1C(=O)Nc1cccc(Cl)c1	3.13 µg/mL (≈ 5.96 µM)	12.5 µg/mL (≈ 23.8 µM)	25 µg/mL (≈ 47.6 µM)
O=C(O)Cc1ccc(NC(=O)c2ccccc2SSc2ccccc2C(=O)Nc2ccc(CC(=O)O)cc2)cc1	100 µg/mL (≈ 175 µM)	100 µg/mL (≈ 175 µM)	100 µg/mL (≈ 175 µM)
O=C(c1ccccc1SSc1ccccc1C(=O)N1C(=O)c2ccccc2C1=O)N1C(=O)c2ccccc2C1=O	> 100 µg/mL	> 100 µg/mL	> 100 µg/mL
CCNC(=O)OCCNC(=O)c1ccccc1SSc1ccccc1C(=O)NCCOC(=O)NCC	25 µg/mL (≈ 46.8 µM)	25 µg/mL (≈ 46.8 µM)	25 µg/mL (≈ 46.8 µM)
CCCCCCCCCCNC(=O)c1ccccc1SSc1ccccc1C(=O)NCCCCCCCCCC	12.5 µg/mL (≈ 21.4 µM)	12.5 µg/mL (≈ 21.4 µM)	25 µg/mL (≈ 42.7 µM)
CCCCCCCCCCCC(=O)OCCCNC(=O)c1ccccc1SSc1ccccc1C(=O)NCCCOC(=O)CCCCCCCCCCC	0.78 µg/mL (≈ 0.993 µM)	12.5 µg/mL (≈ 15.9 µM)	> 100 µg/mL
Cl.Cl.O=C(c1ccccc1SSc1ccccc1C(=O)N1CCN(Cc2ccccc2)CC1)N1CCN(Cc2ccccc2)CC1	25 µg/mL	50 µg/mL	> 100 µg/mL
COCCNC(=O)c1ccccc1SSc1ccccc1C(=O)NCCOC	6.25 µg/mL (≈ 14.9 µM)	12.5 µg/mL (≈ 29.7 µM)	12.5 µg/mL (≈ 29.7 µM)
CC(O)CNC(=O)c1ccc(SSc2ccc(C(=O)NCC(C)O)cc2)cc1 (stereo not drawn)	100 µg/mL (≈ 238 µM)	> 100 µg/mL	> 100 µg/mL
O=C(NCc1ccco1)c1ccccc1SSc1ccccc1C(=O)NCc1ccco1	25 µg/mL (≈ 53.8 µM)	25 µg/mL (≈ 53.8 µM)	25 µg/mL (≈ 53.8 µM)
O=c1c2ccccc2sn1CO	12.5 µg/mL (≈ 69 µM)	12.5 µg/mL (≈ 69 µM)	12.5 µg/mL (≈ 69 µM)
O=C(Nc1cccc2ccc(O)cc12)c1ccccc1SSc1ccccc1C(=O)Nc1cccc2ccc(O)cc12	50 µg/mL (≈ 84.9 µM)	50 µg/mL (≈ 84.9 µM)	50 µg/mL (≈ 84.9 µM)
CCCC(=O)OCCCNC(=O)c1ccccc1SSc1ccccc1C(=O)NCCCOC(=O)CCC	6.25 µg/mL (≈ 11.1 µM)	6.25 µg/mL (≈ 11.1 µM)	25 µg/mL (≈ 44.6 µM)
CCCCCCCCCCCCCCCCCCNC(=O)c1ccccc1SSc1ccccc1C(=O)NCCCCCCCCCCCCCCCCCC	100 µg/mL (≈ 124 µM)	> 100 µg/mL	> 100 µg/mL
